Measurements as given in US6949383B2 (priority 1998, dated 2005).

Columns and labels:
Assay type in all cases: cell-based, Escherichia coli
[1] = system: Super-Oflo.-resisting dnaQ; experiment: Minimum growth inhibiting concentration (MIC) of antibiotic substances
dnaQ = system: dnaQ
dnaQ49 strain = experiment: Drug resistance reached by repeated mutagenesis and selection (Example 2)
Wild-Type = system: Wild-Type

## CC1COc2c(N3CCN(C)CC3)c(F)cc3c(=O)c(C(=O)O)cn1c23 (centres unmarked) [Ofloxacin]
[1]
  Minimum growth inhibiting concentration (MIC): 1024
dnaQ
  Minimum growth inhibiting concentration (MIC): 0.0156
dnaQ49 strain; mutagenesis treatment for 1 time
  Concentration of Ofloxacin: 0.001 µg/mL
dnaQ49 strain; mutagenesis treatments for 2 times
  Concentration of Ofloxacin: 0.01 µg/mL
dnaQ49 strain; mutagenesis treatments for 3 times
  Concentration of Ofloxacin: 0.1 µg/mL
dnaQ49 strain; mutagenesis treatments for 4 times
  Concentration of Ofloxacin: 1 µg/mL
dnaQ49 strain; mutagenesis treatments for 5 times
  Concentration of Ofloxacin: 10 µg/mL
dnaQ49 strain; mutagenesis treatments for 6 times
  Concentration of Ofloxacin: 30 µg/mL
dnaQ49 strain; mutagenesis treatments for 7 times
  Concentration of Ofloxacin: 50 µg/mL
dnaQ49 strain; mutagenesis treatments for 8 times
  Concentration of Ofloxacin: 60 µg/mL
dnaQ49 strain; mutagenesis treatments for 9 times
  Concentration of Ofloxacin: 70 µg/mL
dnaQ49 strain; mutagenesis treatments for 10 times
  Concentration of Ofloxacin: 80 µg/mL
dnaQ49 strain; mutagenesis treatments for 11 times
  Concentration of Ofloxacin: 90 µg/mL
dnaQ49 strain; mutagenesis treatments for 12 times
  Concentration of Ofloxacin: 100 µg/mL
dnaQ49 strain; mutagenesis treatments for 13 times
  Concentration of Ofloxacin: 120 µg/mL
dnaQ49 strain; mutagenesis treatments for 14 times
  Concentration of Ofloxacin: 132 µg/mL
dnaQ49 strain; mutagenesis treatments for 15 times
  Concentration of Ofloxacin: 144 µg/mL
dnaQ49 strain; mutagenesis treatments for 16 times
  Concentration of Ofloxacin: 150 µg/mL
dnaQ49 strain; mutagenesis treatments for 17 times
  Concentration of Ofloxacin: 156 µg/mL
dnaQ49 strain; mutagenesis treatments for 18 times
  Concentration of Ofloxacin: 168 µg/mL
dnaQ49 strain; mutagenesis treatments for 19 times
  Concentration of Ofloxacin: 180 µg/mL
dnaQ49 strain; mutagenesis treatments for 20 times
  Concentration of Ofloxacin: 210 µg/mL
dnaQ49 strain; mutagenesis treatments for 21 times
  Concentration of Ofloxacin: 240 µg/mL
dnaQ49 strain; mutagenesis treatments for 22 times
  Concentration of Ofloxacin: 270 µg/mL
dnaQ49 strain; mutagenesis treatments for 23 times
  Concentration of Ofloxacin: 300 µg/mL
dnaQ49 strain; mutagenesis treatments for 24 times
  Concentration of Ofloxacin: 320 µg/mL
dnaQ49 strain; mutagenesis treatments for 25 times
  Concentration of Ofloxacin: 330 µg/mL
dnaQ49 strain; mutagenesis treatments for 26 times
  Concentration of Ofloxacin: 340 µg/mL
dnaQ49 strain; mutagenesis treatments for 27 times
  Concentration of Ofloxacin: 350 µg/mL
dnaQ49 strain; mutagenesis treatments for 28 times
  Concentration of Ofloxacin: 360 µg/mL
dnaQ49 strain; mutagenesis treatments for 29 times
  Concentration of Ofloxacin: 370 µg/mL
dnaQ49 strain; mutagenesis treatments for 30 times
  Concentration of Ofloxacin: 380 µg/mL
dnaQ49 strain; mutagenesis treatments for 31 times
  Concentration of Ofloxacin: 400 µg/mL
dnaQ49 strain; mutagenesis treatments for 32 times
  Concentration of Ofloxacin: 425 µg/mL
dnaQ49 strain; mutagenesis treatments for 33 times
  Concentration of Ofloxacin: 450 µg/mL
dnaQ49 strain; mutagenesis treatments for 34 times
  Concentration of Ofloxacin: 475 µg/mL
dnaQ49 strain; mutagenesis treatments for 35 times
  Concentration of Ofloxacin: 500 µg/mL
Wild-Type
  Minimum growth inhibiting concentration (MIC): 0.0625
